We go through 6 compounds from ChEMBL document CHEMBL3525927, “Measurement of unbound drug exposure in brain: modeling of pH partitioning explains diverging results between the brain slice and brain homogenate methods” (Drug Metab Dispos, 2011).

The subject of data set [1] is Brain. To be noted: rat, 5 h, 0.1 µM.
Data set [2] has as its system Brain. The data set is described as follows: Drug uptake in Sprague-Dawley rat brain slices in presence of 1 uM of decynium-22. Format: ADME, tissue-based.
The next data set is described as follows: in vivo. To be noted: Sprague-Dawley, rat.
Another data set in a line: in vitro. To be noted: Sprague-Dawley, rat, brain homogenate.
Data set [3] relates to Brain. The data set is described as follows: Unbound volume of distribution in Sprague-Dawley rat brain slices at 100 nM after 5 hrs in presence of 10 uM of cyclosporine. The class given is ADME, tissue-based. To be noted: 0.1 µM.
Data set [4] has as its system Brain. The experiment in a line: Drug uptake in Sprague-Dawley rat brain slices in presence of 50 nM of monensin. Format: ADME, tissue-based.
Data set [5] has as its system Brain. The experiment in a line: Drug uptake in Sprague-Dawley rat brain slices in presence of 50 pM to 50 nM of monensin. The class given is ADME, tissue-based.
Data set [6] can be described thus: Dissociation constant, pKa of the basic compound by capillary electrophoresis-mass spectrometry analysis. Format: physicochemical.
In data set [7] the test system is Brain. To be noted: Sprague-Dawley, rat, brain homogenate, 5 µM.
Data set [8] relates to Brain. To be noted: rat, in vivo, 5 h, 0.1 µM.
Description: Drug uptake in Sprague-Dawley rat brain slices at 100 nM after 5 hrs in presence of 10 uM of fumitremorgin-C and 20 uM of MK-571
In data set [9] the test system is Brain. To be noted: rat, in vivo, 5 h, 0.1 µM. This is another data set of the same source.
Description: Drug uptake in Sprague-Dawley rat brain slices at 100 nM after 5 hrs in presence of 10 uM of fumitremorgin-C
Data set [10] has as its system Brain. To be noted: rat, in vivo, 5 h, 0.1 µM. This is another data set of the same source.
Description: Drug uptake in Sprague-Dawley rat brain slices at 100 nM after 5 hrs in presence of 20 uM of MK-571
In data set [11] the test system is Brain. The data set is described as follows: Drug uptake in Sprague-Dawley rat brain slices at 100 nM after 5 hrs in presence of 10 uM of cyclosporine. Format: ADME, tissue-based. To be noted: 0.1 µM.

Description for physchem: Dissociation constant, pKa of the acidic compound by capillary electrophoresis-mass spectrometry analysis

`C=C[C@H]1C[N+]2(C)CC[C@H]1C[C@@H]2[C@@H](O)c1ccnc2ccc(OC)cc12`: the Vdu in the data set on Brain [1] turned out to be 4.6 mL/g. Also, the results for the Compound recovery entry in the data set on Brain [2] and in the data set with Brain [4] were “Not Active” and “Active”, respectively. The compound further displayed a Kp uu in “in vivo” (brain and plasma) of 1.06. Moreover, the fraction unbound at 5 µM in the data set “in vitro” is 0.23. For the same compound, the “Unbound brain volume of distribution” value in the data set with Brain [3] is reported as “Active”.

`CC(C)NCC(O)COc1cccc2ccccc12` (configuration not stated) [PROPRANOLOL] returned a Vdu with Brain [1] of 112 mL/g. Moreover, the Compound recovery entry with Brain [5] is reported as “Not Active”. The fraction unbound at 5 µM in the data set “in vitro” was determined as 0.029.

With `CO[C@@]1(NC(=O)C(C(=O)O)c2ccc(O)cc2)C(=O)N2C(C(=O)O)=C(CSc3nnnn3C)CO[C@@H]21` (some centres not stated) [MOXALACTAM], the pKa in data set [6] turned out to be 2.9. The same compound came in with a Fu with Brain [7] of 12. The same compound returned a Vdu in the data set on Brain [1] (in vivo) of 0.46 mL/g. The Kp uu in the data set “in vivo” (brain) is 0.46.

The compound `CC[N+](CC)(CC)CC` [TETRYLAMMONIUM] had a Vdu in the data set on Brain [1] (in vivo) of 9 mL/g. Further, the Compound recovery result in the data set with Brain [2] is “Not Active”; in the data set on Brain [4], “Active”. In the data set “in vivo” (brain), this compound registered a Kp uu of 8.95. For the same compound, the fraction unbound at 5 µM in the data set “in vitro” turned out to be 1.

Regarding `O=C1c2c(O)ccc(O)c2C(=O)c2c(NCCNCCO)ccc(NCCNCCO)c21` [MITOXANTRONE], the pKa in data set [6] is 3.2; in “physchem”, 8.4. The same compound showed a Vdu in the data set on Brain [1] of 1757 mL/g. The Compound recovery entry with Brain [8], in the data set with Brain [9] and in the data set with Brain [10] was “Active” in each case. In the data set “in vivo” (brain and plasma), this compound showed a Kp uu of 8.01. In addition, in “in vitro”, the fraction unbound at 5 µM turned out to be 0.0046.

Take `Cc1c(O)cccc1C(=O)N[C@@H](CSc1ccccc1)[C@H](O)CN1C[C@H]2CCCC[C@H]2C[C@H]1C(=O)NC(C)(C)C`: the Vdu in the data set with Brain [1] came out at 860 mL/g. In “in vivo” (brain and plasma), this compound came in with a Kp uu of 0.62. This compound also yielded a fraction unbound at 5 µM in the data set “in vitro” of 0.00072. Also, the “Unbound brain volume of distribution” value with Brain [3] is listed as “Active”. The compound also gave a pKa in “physchem” of 6.3. Besides, the Compound recovery entry with Brain [11] is given as “Not Active”.

A word on the fraction unbound: it is the share of the substance not bound to proteins or other matrix. Low readings indicate little free substance, high ones much free substance. The term pKa denotes the negative logarithm of the acid dissociation constant. Higher therefore signals a group that holds its proton tightly.
